Reference: US20050250738A1, “Taste-masked formulations containing sertraline and sulfoalkyl ether cyclodextrin” (priority 2004, published 2005)

Key:
[1] = Phase solubility of sertraline with cyclodextrins; type: physicochemical; conditions: about 25° C., pH not adjusted, higher cyclodextrin concentration (above about 0.08 M)
Protocol: At lower molar concentrations of cyclodextrin (less than about 0.08 M), the phase solubility curve for each cyclodextrin is very similar.
The phase solubility curves for sertraline with SAE-CD, HP-β-CD and γ-CD were determined according to procedures well known in the art (Higuchi et al. in Phase Solubility Techniques, in Advances in Analytical Chemistry and Instrumentation (Ed. C. N. Reilly, John Wiley & Sons Inc., Vol. 4 (1965), pg. 117-212) the relevant disclosure of which is hereby incorporated by reference). The results are depicted in FIG. 1.

[2] = Solubility of sertraline HCl versus pH in SBE-β-CD solutions; type: physicochemical; conditions: 0, 10% or 20% sulfobutylether-β-cyclodextrin (DS=6.7), buffers pH 1, 3, 5, 7
Protocol: Aqueous 0.01M buffers were prepared at pH values of 1 (HCl), 3 and 5 (citric acid/sodium citrate), and 7 (monobasic potassium phosphate) and used to prepare solutions containing 0, 10% or 20% sulfobutylether-β-cyclodextrin (DS=6.7). Excess sertraline HCl was added to each of the solutions and allowed to mix for three days. The solutions were centrifuged and the supernatants analyzed for sertraline content and final pH.

Compound	Phase solubility of sertraline with cyclodextrin [1]	Effect of solution pH upon solubility [2]
2-hydroxypropyl-β-cyclodextrin [HP-β-CD]	outperform the γ-CD	–
CN[C@H]1CC[C@@H](c2ccc(Cl)c(Cl)c2)c2ccccc21 [sertraline, (1S-cis)-4-(3,4-dichlorophenyl)-1,2,3,4-tetrahydro-N-methyl-1-naphthalenamine]	–	independent of the pH over the range evaluated
Sulfobutyl Ether-β-Cyclodextrin [SBE7-β-CD]	outperform the γ-CD	–
